US20220118117A1, “MODULATORS OF METABOTROPIC GLUTAMATE RECEPTOR 4” (The General Hospital Corporation, priority 2019, published 2022)

Assays:
[1] = plasma protein binding, ultrafiltration assay using [18F]15; format: in vitro ADME; conditions: human plasma
Description: Plasma Protein Binding Assay. An aliquot of radiolabeled compound [^18F]15 in saline (10 μL, 74 kBq) was added to a sample of human plasma (0.5 mL). The mixture was gently mixed by repeated inversion and incubated for 10 min at room temperature. Following incubation, a small sample (10 μL) was removed to determine the total radioactivity in the plasma sample (AT; AT=Abound+Aunbound). The upper part of the Centrifree tube was discarded, and an aliquot (10 μL) from the bottom part of the tube was removed to determine the amount of unbound radioactivity (Aunbound) that passed through the membrane (molecular weight cutoff 30 kD). The radioactivity of each sample was measured using PerkinElmer Wizard2 2480 gamma-counter. Plasma protein binding was derived by the following equation: % unbound=Aunbound×100/AT.
As the PET tracer is delivered into the bloodstream, it can bind to albumin, α1-acid glycoprotein and lipoproteins. Plasma protein binding reduces the free drug in the bloodstream and inhibits BBB penetration to reach the brain target. (Ref 44) The PPB value was obtained with an ultrafiltration assay by using [^18F]15. […] These pharmacological properties along with other molecular properties such as MW, tPSA and HBO are in the range normally considered favorable for a PET ligand.

[2] = plasma stability; format: in vitro ADME; conditions: rat plasma; for Plasma stability, remaining of the intact test compound: 37° C.
Description: Briefly, each tube is added 882 μL of 1:1 diluted rat plasma with phosphate buffer (pH 7.4). 18 μL (100 μM) of DMSO stock solution of the test compound (4, 13 and 15) or positive control compound (Diltiazem) was added to make a final compound concentration 2 μM in the plasma solution and final DMSO content 2%. The mixture was incubated at 37° C. After the incubation at 0, 15, 30, 60, and 120 min time points, aliquots of 50 μL samples were quenched with 100 μL of ice-cold acetonitrile with 25 μM of the internal reference (for HPLC analysis), respectively. The quenched samples were centrifuged at 10,000×g, and the supernatant was analyzed by HPLC. The percentage of remaining intact test compound was calculated by (peak area at the specific time point)/(peak area at 0 min)×100. Every sample was assayed three times.

[3] = test system: other mGlu receptors (mGluR1, mGluR5, mGluR2, mGluR3, mGluR6, mGluR8); experiment: mGluR subtype selectivity (Ca2+ mobilization and cAMP assays); format: cell-based; conditions: Gq coupled: Ca2+ mobilization; Gi/o coupled: cAMP assay
Description: Ca^2+ mobilization assay. The Gq coupled receptors (mGluR1 and mGluR5) were tested using Ca^2+ mobilization assay. mGluR1 stable cell lines were plated into poly-L-lysine (PLL) coated 384-well black clear bottom cell culture plates with complete Basal Medium Eagle (BME) buffer, which was composed of 10% dialyzed FBS, penicillin G (100 units/mL), streptomycin (100 μg/mL) with Tetracycline (1 μg/mL) at density of 20,000 cells in 40 μl per well for overnight. […] Once loaded in FLIPR (Molecular Devices), basal fluorescence was measured for 10 s, then 10 μL of test or reference compounds were added, followed by continued fluorescence measurement for an additional 120 s. […]
cAMP assay. […] Luminescence was counted in a Trilux luminescence counter. Data were analyzed with Prizm 5.0 (GraphPad software).
The selectivity of 15 was also analyzed among the various mGluR subtypes, in which the Gq coupled receptors (mGluR1 and mGluR5) were tested using Ca^2+ mobilization assay and the Gi/o coupled receptors (mGluR2, mGluR3, mGluR4, mGluR6 and mGluR8) using the cAMP assay.

[4] = Log D7.4, scaled-down shake flask method using [18F]15; format: physicochemical; conditions: octanol / phosphate buffer pH 7.4
Description: The test tube was mixed by vortex for 2 min and then centrifuged for 2 min to fully separate the aqueous and organic phase. The samples taken from the octanol layer (0.1 mL) and the aqueous layer (1.0 mL) were saved for radioactivity measurement. An additional aliquot of the octanol layer […] was carefully transferred to a new test tube containing 0.5 mL of octanol and 2.5 mL of phosphate buffer solution (pH 7.4). The previous procedure (vortex mixing, centrifugation, sampling, and transfer to the next test tube) was repeated until six sets of aliquot samples had been prepared. The radioactivity of each sample was measured using PerkinElmer Wizard2 2480 gamma-counter. The log D of each set of samples was calculated as the following:
Log D7.4=Log(radioactivity of octanol layer×10/radioactivity of PBS layer)
Lipophilicity has a major effect on BBB penetration, ADMET properties and pharmacological activity. […] The Log D7.4 of 15 was 3.82 as measured with a scaled-down shake flask method using [^18F]15 (Table 2) and is in the range normally considered favorable for a PET ligand. (Ref. 43).

## [2H]C([2H])(F)Sc1cc(NC(=O)c2ccccn2)ccc1Cl [Compound 15, N-(4-Chloro-3-((fluoromethyl-d2)thio)phenyl)picolinamide]
[1]
  PPB (plasma protein binding): 93.1%
[2]; 0 min
  Plasma stability, remaining of the intact test compound: 100.00 ± 1.88%
[2]; 15 min
  Plasma stability, remaining of the intact test compound: 93.46 ± 1.96%
[2]; 30 min
  Plasma stability, remaining of the intact test compound: 104.21 ± 2.84%
[2]; 60 min
  Plasma stability, remaining of the intact test compound: 94.54 ± 5.18%
[2]; 120 min
  Plasma stability, remaining of the intact test compound: 84.52 ± 10.16%
  The plasma stability, The intact ± SEM at 120 min (%): 84.5 ± 10.2%
[3]
  selectivity among mGluR subtypes: has selectivity against other mGlu receptors
[4]
  Log D7.4: 3.82
